How the values were obtained:
[1] = system: MC38-Ova tumour; assay: Adoptive transfer of agonist-treated OTI T cells into MC38-Ova tumour bearing Rag2 KO mice, Cleaved Caspase 3 immunohistochemistry; format: in vivo; conditions: T cells re-stimulated in vitro with agonist before transfer; tumours excised 24 hours after transfer
Method: FIG. 13. […] Cytotoxic OTI T cells were re-stimulated in vitro in the presence of FPL 64176 or carrier control before adoptive transfer into MC38-Ova tumour bearing Rag2 KO mice via tail vein injection. 24 hours after the adoptive transfer, tumours were excised and analysed by immunohistochemistry for Cleaved Caspase 3 (A). 3 mice per condition, % CC3 over whole tumour area from all mice. (B) Repeat experiment with 3-4 mice per condition. Each data point represents the average CC3 staining of 3 separate tumour sections. Overall CC3 staining (top panel) and weak, moderate, and strong CC3 staining (bottom row), respectively, are shown.
As described above, the present invention may find use in adoptive transfer. To investigate the applicability of Cav channel agonist treatment in an adoptive transfer treatment regime, cytotoxic OTI T cells were re-stimulated in vitro in the presence of FPL 64176 or carrier control before adoptive transfer into MC38-Ova tumour bearing Rag2 KO mice via tail vein injection. 24 hours after the adoptive transfer, tumours were excised and analysed by immunohistochemistry for Cleaved Caspase 3. FIGS. 13A&B indicate that treatment of tumour-specific T cells with a Cav channel agonist prior to adoptive transfer leads to increased tumour cell killing compared to adoptive transfer with T cells that have not been treated with a Cav channel agonist.

[2] = system: CD8+ T cells; assay: Flow cytometric analysis of viability, proliferation and memory subsets of CD8+ T cells; format: cell-based; conditions: 10 μM, 24 h
Method: FIG. 11. […] Naïve CD8+ T cells were stimulated with plate-bound anti-CD3/CD28 antibodies for 24 h in the presence of 10 μM FPL64176 or carrier control before flow cytometric analysis (FIG. 11A-D). (A) Quantitative analysis of live cell numbers. (B) Percentage of cells positive for the apoptotic marker Apotracker™ Green. (C) Percentage of cells positive for cell viability dye DAPI. (D) Analysis of T cell subsets based on the expression of CD44 and CD62L: CD44− CD62L+ (naïve), CD44+ CD62L+ (central memory), and CD44+ CD62L− (effector memory). (FIG. 11E-G) CTLs were restimulated on day 10 with plate-bound anti-CD3 antibody for 24 h in the presence of 10 μM FPL64176 or carrier control before flow cytometric analysis. (E) Quantitative analysis of live cell numbers. (F) Percentage of cells positive for the apoptotic marker Apotracker™ Green. (G) Percentage of cells positive for the cell viability dye DAPI. […]
To ensure that the use of L-type Cav agonist is not adversely affecting immune cells, general cell functions were assessed. […]

[3] = system: P815 target cells; assay: VITAL cytotoxicity assay, human CD8+ CTLs with P815 target cells; format: cell-based; conditions: 10 μM, pre-incubation 40-50 mins, vs carrier control
Method: FIG. 3. L-type Cav channel agonists increase expression of GLI1 and enhance specific cell killing by human CD8+ CTLs. Naïve human CD8+ T cells were purified from the buffy coat layer of blood isolated from healthy donors, and were stimulated using ImmunoCult™ CD3/CD28/CD2 human T-Cell Activator and again restimulated at day 10 for 3 days. (A) Human CTLs were restimulated on day 15-20 for 24 h with plate-bound anti-CD3 in the presence of 10 μM of FPL64176 or carrier control before RNA was extracted for qRT-PCR analysis. n=1 healthy donor. TBP is used as a reference gene. (B) Updated graph of (A) showing n=3 independent experiments/healthy donors. Gli1 expression is normalised to carrier. (C) Between day 16 and 24, CD8+ T cells were co-cultured with P815 target cells at indicated effector to target ratios and subjected to a VITAL cytotoxicity assay in the presence of 10 μM FPL64176 (squares) or carrier control (circles). (D) Same data as (C) represented differently. […] Error bars indicate SD. p values were calculated using an unpaired two-tailed Student's t test (B) or a two-way ANOVA (C/D). * indicates p<0.05, ** indicates p<0.01, **** indicates p<0.0001.
A VITAL assay was subsequently performed to assess the role of L-type Cav agonists with regards to specific tumour cell killing by human CD8+ CTLs. […]

In the case of `COC(=O)c1c(C)[nH]c(C)c1C(=O)c1ccccc1Cc1ccccc1` [FPL 64176], the “tumour cell death in vivo (Cleaved Caspase 3 staining)” value [1] is reported as “increased tumour cell death”, the “memory phenotypes (CD44/CD62L subsets)” value ([2]; naïve CD8+ T cells stimulated with anti-CD3/CD28) is reported as “does not affect” and the “viability or proliferation of naïve and cytotoxic CD8+ T cells” value ([2]; live cell numbers, Apotracker Green, DAPI) is reported as “does not impair”. The “improvement of cell killing” value [3] was ~70%.

Reference: patent publication US20250222028A1, “ENGINEERED IMMUNE CELL PLATFORM” (Cancer Research Technology Limited, priority 2022, published 2025)
